Assay results reported in patent US11058772B2, “(Bacterio)chlorophyll photosensitizers for treatment of eye diseases and disorders” (Yeda Research and Development Co. Ltd., priority 2011, dated 2021).

Experiments:
[1] = test system: de-epithelialized rabbit cornea; assay: Depth of penetration into the rabbit cornea, ex vivo (fluorescence microscopy of sagittal slices); format: in vitro ADME
Procedure: Eyes of rabbits were enucleated and deepithelialised mechanically post mortem. The eyes were exposed to Bchl-S solution using an eye cap for 5, 10, and 30 minutes and to Bchl-D solution for 10 and 30 min, in darkness. Controls: untreated eyes, and one eye treated with dextran-500 only for 30 min in darkness. Following this pretreatment, the corneas were briefly rinsed with saline and the central 8-mm buttons were trephined, removed, wrapped in aluminum foil and frozen on dry ice until further use. Central serial corneal sagittal slices (12 μm) were cut with a cryomicrotome, mounted on a microscope glass slide and stored frozen in −70° C. until use. For measurement of fluorescence, the individual slices were placed on the microscope base and a photographic record was immediately taken. Fluorescence intensity of Bchl-S or Bchl-D treated corneas from 3 serial cryo sections was recorded at 760 nm, upon excitation at 740 nm, using a fluorescence microscope (BX61 Olympus, Japan) equipped with CCD camera (Cascade 512B, Roper Sci., USA) and a long pass filter of above 760 nm. The digital data was analyzed, using ImageJ software (NIH, USA).
The penetration depth of the photosensitizer determines the extent of cornea's tissue exposure to the photodynamic effect. In particular, the deeper the penetration, the higher is the probability for endothelial impairment. To resolve the penetration depth of test compounds following different times of incubation, the digitized fluorescence of dissected corneal discs was monitored using fluorescence microscopy as described in Materials and Methods.
The penetration depth of WST11 into the de-epithelialized cornea, following various incubation times, was performed in the darkness in the absence or presence of dextran, using saline or dextran solutions of WST11 (WST11-S or WST11-D solutions, respectively) in 20 eyes of euthanized rabbits. Sagittal frozen sections mounted on glass slides were subjected to fluorescence microscopy. The distribution of WST11 across the cornea was recorded photographically by fluorescence microscopy (excitation/emission 740/760 nm). The controls were 4 untreated eyes and 1 eye treated only with dextran-T 500 for 30 minutes.

[2] = test system: de-epithelialized rabbit cornea; assay: Photobleaching of photosensitizer in ex-vivo treated corneas; conditions: 20 min pretreatment
Procedure: Corneas of eyes from euthanized rabbits were de-epithelialized. Usually, 5 rabbits were tested, and 8 of the 10 eyes were pretreated for 20 minutes with a bacteriochlorophyll derivative in saline (Bchl-S), using an eye cap. The solution excess was carefully tipped off with filter paper. The eyes were irradiated for the specified time duration: 0, 10, 30, and 60 min (two corneas per time frame). Additional two eyes were used as control. The corneas were removed, and the central buttons of 8-mm diameter were punched out with a round trephine. Absorption spectra were recorded using V-570 spectrophotometer (Jasco, Japan).
It was previously described by the present inventors that generation of oxygen radicals upon illumination of certain bacteriochlorophyll derivatives such as WST11 in the absence of serum albumin is accompanied by bleaching of the NIR transition and absorption increase at ˜645 nm due to the photochemical generation of a chlorophyll-like molecules (Ashur et al. 2009). Such changes are therefore important markers for the photochemical activity of such bacteriochlorophyll derivatives in situ. […] Results obtained for 10 corneas of 5 euthanized rabbits treated with WST11 in saline are presented herein.
Eight de-epithelialized eyes were retreated with WST11-S for 20 min using an eye cap, and the remaining 2 eyes served as control. […] In parallel, the absorption increased at 645 nm (upward arrow), typical to the corresponding chlorin derivative formation by the photochemical interaction of WST11 with molecular oxygen (Ashur et al., 2009)

[3] = test system: de-epithelialized rabbit cornea; assay: Overall accumulation of photosensitizer by the rabbit cornea (optical absorption at 755 nm); format: in vitro ADME; conditions: exposure to saline solution for 10, 20 and 30 min; increased with time
Procedure: Eyes of rabbits were de-epithelialised mechanically immediately post mortem. For most studies, 6 rabbits were used, wherein 6 eyes of 6 rabbits were exposed to the bacteriochlorophyll test compound for 10, 20 and 30 minutes (2 eyes for each test) using an eye cap, while the contralateral eyes were left untreated and served as controls. The corneas were removed and the central buttons of 8-mm diameter were punched out with a round trephine and placed onto the outer side of a polymethylmethacrylate cuvette in the area of light beam passage. Absorption spectra were recorded, and optical density (OD) at 600-900 nm (in most cases at 755 nm) was measured using V-570 spectrophotometer (Jam), Japan).
Six eyes of 3 euthanized rabbits were de-epithelialized mechanically immediately post mortem. Five of these eyes were exposed to WST11 in saline (WST11-S solution) for 10, 20 and 30 min, using an eye cap, and the optical absorption at 755 nm of the washed corneas was determined as described in Materials and Methods. One eye served as untreated control.

[4] = test system: rabbit cornea (keratocytes, endothelium), retina; assay: Histology and endothelial staining after in vivo treatment; conditions: two days after treatment
Procedure: Forty eight hours or 1 week after treatment with Bchl-S, Bchl-D, RF or RF-D, rabbits were euthanized, and the eyes were immediately enucleated and fixated in Davidson's fixative (48 hour post treatment) or in 4% formaldehyde (1 week post treatment). […] sections were prepared from either the whole eye or corneas and stained with hematoxylin-eosin (H&E). The pathology of the corneal and retinal sections was examined. The sections were photographed with a digital video camera (Nikon DS-Ril, Japan), mounted on a light microscope (E-800 Leica, Germany). Keratocyte and endothelial cell densities were counted in 2 areas of 2 central histological sections and calculated, using Image-Pro software (MediaCybernetics, MD, USA). Rabbits underwent analysis of corneal endothelial damage 1 day post treatment, using alizarine red S and trypan blue staining as described in Spence and […], 1976. The treatment included either a 20-minute pretreatment with Bchl-S or Bchl-D solutions, followed by 30-minute irradiation at 755 nm (2 rabbits), or only a 30-minute irradiation at 760 nm (2 rabbits). Contralateral non-treated eyes served as controls. One rabbit underwent treatment with WST11 in saline (WST11-S; 20-minute incubation, 30-minute irradiation at 755 nm). Six rabbits underwent treatment with WS[…] (n=4, 20-minute incubation, 30-minute irradiation at 755 nm), or with RF-D (n=2, 30-minute incubation, 30-minute irradiation at 370 nm) as described above (In-vivo studies section). Contralateral eyes were used as control.

CCC1C2=Cc3c(C)c(C(=O)NCCS(=O)(=O)[O-])c4[n]3[Pd][n]3c(c(C)c(C(C)=O)c3=CC(=N2)C1C)=CC1=NC(=C4CC(=O)OC)C(CCC(=O)[O-])C1C.[K+].[K+] (stereo not shown) [WST11, Palladium 3^1-oxo-15-methoxycarbonylmethyl-rhodobacteriochlorin 13^1-(2-sulfoethyl)amide dipotassium salt]
stromal thickness after exposure ([1]; 30 min exposure to saline solution, from 360-380 μm): 600-730 μm | penetration depth into corneal stroma ([1]; in saline, no dextran, 10 min exposure, dipotassium salt): half of the corneal stroma | penetration depth into corneal stroma ([1]; in saline, no dextran, 10 min exposure, listed as WST11-S, dipotassium salt): entire outer half of the stroma | penetration depth into corneal stroma ([1]; in saline, no dextran, 30 min exposure, dipotassium salt): entire stroma depth | penetration depth into corneal stroma ([1]; in saline, no dextran, 30 min exposure, listed as WST11-S, dipotassium salt): all the way to Descemet's membrane | penetration depth into corneal stroma ([1]; with dextran-500, 10 min incubation): outer ⅓ of the corneal stroma | penetration depth into corneal stroma ([1]; with dextran-500, 30 min incubation): 50% | 755-nm absorption of corneal WST11 diminished by ([2]; NIR illumination 10 min): 30% | 755-nm absorption of corneal WST11 diminished by ([2]; NIR illumination 30 min): 50% | 755-nm absorption of corneal WST11 diminished by ([2]; NIR illumination 60 min): 75% | optical density of the impregnated corneas at 755 nm [3]: ≤ 1.71 OD units | corneal edema (histology) [4]: marked edema | keratocytes in stroma (histology) [4]: reduced number of keratocytes throughout the stroma | endothelial cell layer / damage to the endothelium ([4]; H&E and vital staining, listed as WST11-S, dipotassium salt): appeared intact | cornea swelling (thickness) ([4]; histology): 890 μm | endothelial counts, treatment vs control ([4]; P=0.47): no statistical difference
